Data taken from patent US11369654B2, “Application method of Dendrobium candidum in preparing medicine for treating hypertension” (Hangzhou Danhe Pharmaceutical CO., Ltd., priority 2017, dated 2022).
Values joined by “and” are separate entries in the source; they are usually repeats but may differ in a detail not shown here. Equal values may be shown once.

Assays:
[1] = test system: Spontaneously Hypertensive Rats (SHR); assay: Experiment 5: antihypertensive effect of the sample of Example 2 on SHR; type: in vivo, rat
Protocol: Rats: Spontaneously Hypertensive Rats (SHR), Wistar rats are used as normal controls.
Rat Blood Pressure Measurement: BP-98A Non-invasive Tail Artery Blood Pressure Meter, Japan Soft Rotation Co., Ltd
Group therapy is described in the following description. Blood pressure and body weight are measured and grouped after one week of adaptive feeding in all rats. […] Eight rats in each group are treated for 2 weeks.
The following description discussed with the blood pressure measurement. The rats are preheated at 38° C. for 5-10 minutes to avoid blood flow in the tail of the rat. The blood pressure of the rats is measured three times in a waking and quiet state, and the average value of three times was used as the blood pressure of the rats. Blood pressure is measured twice a week, once 2 hours after administration and once 24 hours after administration, to observe the immediate antihypertensive effect and after 24 hours antihypertensive effect (and the peak-to-valley ratio).
(§1) The following description discusses with the trough-peak ratio calculation of depressurization amplitude. The difference of blood pressure before treatment minus 24 hours after administration is the trough of the range of blood pressure reduction, which is the lowest point before the next administration; the difference of blood pressure before treatment and 2 hours after administration is the peak value of blood pressure reduction, that is, the maximum point of blood pressure reduction after administration. Valley value of depressurization amplitude divided by peak value of depressurization amplitude is equal to valley-peak ratio of depressurization amplitude.

[2] = test system: Spontaneously Hypertensive Rats (SHR); assay: Experiment 2: hypotensive effect of samples of Embodiment 1 and 2, tail artery blood pressure; type: in vivo, rat; conditions: for valley-peak ratio of Systolic Blood Pressure Reduction: 24 h divided by 2 h after administration
Protocol: Rats: 10 weeks old Spontaneously Hypertensive Rats (SHR), Wistar rats were used as normal controls.
Rat Blood Pressure Measurement: BP-98A Non-invasive Tail Artery Blood Pressure Meter, Japan Soft Rotation Co., Ltd.
Group therapy is described in the following description. Blood pressure and body weight are measured and grouped after one week of adaptive feeding in all rats. […] Eight rats in each group are treated for 8 weeks. Blood pressure is observed for 1 week after withdrawal.
Blood pressure measurement: The rats are preheated at 38° C. for 5-10 minutes to avoid blood flow in the tail of the rat. The blood pressure of the rats is measured three times in a waking and quiet state, and the average value of three measurement times is used as the blood pressure of the rats. Blood pressure is measured twice a week, once 2 hours after administration and once 24 hours after administration, to observe the immediate antihypertensive effect and after 24 hours antihypertensive effect (and the peak-to-valley ratio).
as §1, with “The valley-peak ratio calculation” for “The following description discusses with the trough-peak ratio calculation”, “of depressurization amplitude: The difference” for “of depressurization amplitude. The difference”

[3] = 2 h after administration, treatment for 1 week, medium dose 0.8 g/kg crude drug, amlodipine 0.5 mg/kg
[4] = 2 h after administration, treatment for 2 weeks, medium dose 0.8 g/kg crude drug, amlodipine 0.5 mg/kg
[5] = 24 h after administration, treatment for 1 week, medium dose 0.8 g/kg crude drug, amlodipine 0.5 mg/kg
[6] = 24 h after administration, treatment for 2 weeks, medium dose 0.8 g/kg crude drug, amlodipine 0.5 mg/kg
[7] = before treatment, medium dose group 0.8 g/kg crude drug, amlodipine group 0.5 mg/kg
[8] = treatment for 1 week, medium dose 0.8 g/kg crude drug, amlodipine 0.5 mg/kg
[9] = treatment for 2 weeks, medium dose 0.8 g/kg crude drug, amlodipine 0.5 mg/kg
[10] = 2 h after administration, treatment for 1 week, 0.8 g/kg crude drug, amlodipine 0.5 mg/kg
[11] = 2 h after administration, treatment for 1 week, 0.8 g/kg crude drug, amlodipine 0.5 mg/kg, listed as amlodipine
[12] = 2 h after administration, treatment for 2 weeks, 0.8 g/kg crude drug, amlodipine 0.5 mg/kg
[13] = 2 h after administration, treatment for 3 weeks, 0.8 g/kg crude drug, amlodipine 0.5 mg/kg
[14] = 2 h after administration, treatment for 4 weeks, 0.8 g/kg crude drug, amlodipine 0.5 mg/kg
[15] = 2 h after administration, treatment for 5 weeks, 0.8 g/kg crude drug, amlodipine 0.5 mg/kg
[16] = 2 h after administration, treatment for 6 weeks, 0.8 g/kg crude drug, amlodipine 0.5 mg/kg
[17] = 2 h after administration, treatment for 7 weeks, 0.8 g/kg crude drug, amlodipine 0.5 mg/kg
[18] = 2 h after administration, treatment for 8 weeks, 0.8 g/kg crude drug, amlodipine 0.5 mg/kg
[19] = 2 h after administration, treatment for 8 weeks, 0.8 g/kg crude drug, amlodipine 0.5 mg/kg, listed as amlodipine
[20] = 24 h after administration, treatment for 1 week, 0.8 g/kg crude drug, amlodipine 0.5 mg/kg
[21] = 24 h after administration, treatment for 2 weeks, 0.8 g/kg crude drug, amlodipine 0.5 mg/kg
[22] = 24 h after administration, treatment for 3 weeks, 0.8 g/kg crude drug, amlodipine 0.5 mg/kg
[23] = 24 h after administration, treatment for 4 weeks, 0.8 g/kg crude drug, amlodipine 0.5 mg/kg
[24] = 24 h after administration, treatment for 5 weeks, 0.8 g/kg crude drug, amlodipine 0.5 mg/kg
[25] = 24 h after administration, treatment for 6 weeks, 0.8 g/kg crude drug, amlodipine 0.5 mg/kg
[26] = 24 h after administration, treatment for 7 weeks, 0.8 g/kg crude drug, amlodipine 0.5 mg/kg
[27] = 24 h after administration, treatment for 8 weeks, 0.8 g/kg crude drug, amlodipine 0.5 mg/kg
[28] = 24 h after administration, treatment for 8 weeks, 0.8 g/kg crude drug, amlodipine 0.5 mg/kg, listed as amlodipine
[29] = stopping for 1 week after 8 weeks of treatment
[30] = stopping for 3 days after 8 weeks of treatment
[31] = stopping for 3 days after 8 weeks of treatment, listed as amlodipine
[32] = treatment for 1 week, 0.8 g/kg crude drug, amlodipine 0.5 mg/kg
[33] = treatment for 2 weeks, 0.8 g/kg crude drug, amlodipine 0.5 mg/kg
[34] = treatment for 3 weeks, 0.8 g/kg crude drug, amlodipine 0.5 mg/kg
[35] = treatment for 4 weeks, 0.8 g/kg crude drug, amlodipine 0.5 mg/kg
[36] = treatment for 5 weeks, 0.8 g/kg crude drug, amlodipine 0.5 mg/kg
[37] = treatment for 6 weeks, 0.8 g/kg crude drug, amlodipine 0.5 mg/kg
[38] = treatment for 7 weeks, 0.8 g/kg crude drug, amlodipine 0.5 mg/kg
[39] = treatment for 8 weeks, 0.8 g/kg crude drug, amlodipine 0.5 mg/kg

CCOC(=O)C1=C(COCCN)NC(C)=C(C(=O)OC)C1c1ccccc1Cl (centres unmarked) [Amlodipine, amlodipine besylate]
diastolic blood pressure [1, 3]: 146.8 mmHg | systolic blood pressure [1, 3]: 178.2 mmHg | diastolic blood pressure [1, 4]: 148.5 mmHg | systolic blood pressure [1, 4]: 180.5 mmHg | diastolic blood pressure [1, 5]: 157.1 mmHg | systolic blood pressure [1, 5]: 203.5 mmHg | diastolic blood pressure [1, 6]: 157.6 mmHg | systolic blood pressure [1, 6]: 205.6 mmHg | diastolic blood pressure [1, 7]: 159.6 mmHg | systolic blood pressure [1, 7]: 212.7 mmHg and 212.7 ± 6.87 mmHg | 2-hour hypotensive amplitude (peak of systolic blood pressure reduction) [1, 8]: 34.5 mmHg | 24-hour hypotensive amplitude (trough of systolic blood pressure reduction) [1, 8]: 9.2 mmHg | valley-peak ratio of Systolic Blood Pressure Reduction [1, 8]: 0.27 | 2-hour hypotensive amplitude (peak of systolic blood pressure reduction) [1, 9]: 32.2 mmHg | 24-hour hypotensive amplitude (trough of systolic blood pressure reduction) [1, 9]: 7.1 mmHg | valley-peak ratio of Systolic Blood Pressure Reduction [1, 9]: 0.22 | diastolic blood pressure [2, 10]: 143.2 mmHg | systolic blood pressure [2, 10]: 175.1 mmHg | diastolic blood pressure [2, 11]: 143.2±6.41 mmHg | systolic blood pressure [2, 11]: 175.1±4.44 mmHg | diastolic blood pressure [2, 12]: 145.5 mmHg | systolic blood pressure [2, 12]: 178.3 mmHg | diastolic blood pressure [2, 13]: 144.7 mmHg | systolic blood pressure [2, 13]: 177.8 mmHg | diastolic blood pressure [2, 14]: 146.2 mmHg | systolic blood pressure [2, 14]: 175.7 mmHg | diastolic blood pressure [2, 15]: 137.6 mmHg | systolic blood pressure [2, 15]: 174.3 mmHg | diastolic blood pressure [2, 16]: 143.1 mmHg | systolic blood pressure [2, 16]: 178.8 mmHg | diastolic blood pressure [2, 17]: 139.9 mmHg | systolic blood pressure [2, 17]: 175.8 mmHg | diastolic blood pressure [2, 18]: 144.7 mmHg | systolic blood pressure [2, 18]: 178.1 mmHg | diastolic blood pressure [2, 19]: 144.7±3.43 mmHg | systolic blood pressure [2, 19]: 178.1±2.67 mmHg | diastolic blood pressure [2, 20]: 162.3 mmHg | systolic blood pressure [2, 20]: 200.7 mmHg | diastolic blood pressure [2, 21]: 158.6 mmHg | systolic blood pressure [2, 21]: 202.6 mmHg | diastolic blood pressure [2, 22]: 159.0 mmHg | systolic blood pressure [2, 22]: 201.6 mmHg | diastolic blood pressure [2, 23]: 161.3 mmHg | systolic blood pressure [2, 23]: 209.0 mmHg | diastolic blood pressure [2, 24]: 161.8 mmHg | systolic blood pressure [2, 24]: 207.8 mmHg | diastolic blood pressure [2, 25]: 165.0 mmHg | systolic blood pressure [2, 25]: 202.8 mmHg | diastolic blood pressure [2, 26]: 156.3 mmHg | systolic blood pressure [2, 26]: 199.5 mmHg | diastolic blood pressure [2, 27]: 154.3 mmHg | systolic blood pressure [2, 27]: 202.0 mmHg | diastolic blood pressure [2, 28]: 154.3±5.50 mmHg | systolic blood pressure [2, 28]: 202.0±5.88 mmHg | diastolic blood pressure ([2]; before treatment): 156.0 mmHg | systolic blood pressure ([2]; before treatment): 209.8 mmHg and 209.8 ± 8.92 mmHg | diastolic blood pressure [2, 29]: 155.4 mmHg | systolic blood pressure [2, 29]: 214.2 mmHg | diastolic blood pressure [2, 30]: 158.7 mmHg | systolic blood pressure [2, 30]: 205.4 mmHg | diastolic blood pressure [2, 31]: 158.7±2.79 mmHg | systolic blood pressure [2, 31]: 205.4±1.85 mmHg | 2-hour hypotensive amplitude (peak of systolic blood pressure reduction) [2, 32]: 34.7 mmHg | 24-hour hypotensive amplitude (trough of systolic blood pressure reduction) [2, 32]: 9.1 mmHg | valley-peak ratio of Systolic Blood Pressure Reduction [2, 32]: 0.26 | 2-hour hypotensive amplitude (peak of systolic blood pressure reduction) [2, 33]: 31.5 mmHg | 24-hour hypotensive amplitude (trough of systolic blood pressure reduction) [2, 33]: 7.2 mmHg | valley-peak ratio of Systolic Blood Pressure Reduction [2, 33]: 0.23 | 2-hour hypotensive amplitude (peak of systolic blood pressure reduction) [2, 34]: 32.0 mmHg | 24-hour hypotensive amplitude (trough of systolic blood pressure reduction) [2, 34]: 8.2 mmHg | valley-peak ratio of Systolic Blood Pressure Reduction [2, 34]: 0.26 | 2-hour hypotensive amplitude (peak of systolic blood pressure reduction) [2, 35]: 34.1 mmHg | 24-hour hypotensive amplitude (trough of systolic blood pressure reduction) [2, 35]: 0.8 mmHg | valley-peak ratio of Systolic Blood Pressure Reduction [2, 35]: 0.02 | 2-hour hypotensive amplitude (peak of systolic blood pressure reduction) [2, 36]: 35.5 mmHg | 24-hour hypotensive amplitude (trough of systolic blood pressure reduction) [2, 36]: 2.0 mmHg | valley-peak ratio of Systolic Blood Pressure Reduction [2, 36]: 0.06 | 2-hour hypotensive amplitude (peak of systolic blood pressure reduction) [2, 37]: 31.0 mmHg | 24-hour hypotensive amplitude (trough of systolic blood pressure reduction) [2, 37]: 7.0 mmHg | valley-peak ratio of Systolic Blood Pressure Reduction [2, 37]: 0.23 | 2-hour hypotensive amplitude (peak of systolic blood pressure reduction) [2, 38]: 34.0 mmHg | 24-hour hypotensive amplitude (trough of systolic blood pressure reduction) [2, 38]: 10.3 mmHg | valley-peak ratio of Systolic Blood Pressure Reduction [2, 38]: 0.30 | 2-hour hypotensive amplitude (peak of systolic blood pressure reduction) [2, 39]: 31.7 mmHg | 24-hour hypotensive amplitude (trough of systolic blood pressure reduction) [2, 39]: 7.8 mmHg | valley-peak ratio of Systolic Blood Pressure Reduction [2, 39]: 0.25
